Among the data in US12398097B2, “WDR5-MYC inhibitors” (Vanderbilt University, priority 2019, dated 2025) are Ki values, retold here.

pKi: −log10 of the molar value.

This test deals with WDR5 (Homo sapiens, UniProt P61964). Nature of the test: Competition-based fluorescence polarization anisotropy assay. To be noted: binding to WDR5; displacement of FITC-labeled small molecule probe (analogous to Example J2 or HCH-25) or peptide probe FITC-AHx-SEEEIDVVSV; pH 6.0; Ki converted from IC50. As to the method:
Compounds of the present invention were assessed for their ability to bind to WDr5 using a competition-based fluorescence polarization anisotropy assay, similar to the method previously described. […] Fluorescence polarization measurements were performed in 384-well plates (Greiner Bio One) using a Cytation 3 plate reader (BioTek). Fluorescein isothiocyanate (FITC)-labeled peptide probe ([…]) was purchased from GenScript USA Inc and used without further purification. […] The assay buffer contained 200 mM phosphate, 300 mM NaCl, and 0.5 mM TCEP and 0.1% Chaps at pH 6.0. […] This was converted into a binding dissociation constant (Ki value) according to the formula: […] Data shown in the table below represents a K; determined from this method for each Example, using either a fluorescently labeled small molecule probe analogous to Example J2 or Example HCH-25, or the peptide probe described above, in the assay.
“2-Bromo-N-(5-chloro-2-hydroxy-3-nitrophenyl)-4-ethyl-5-hydroxybenzenesulfonamide [NE3]” gave a pKi of 7.22.
`O=C(NC1CC(O)C1)c1cc(OC(F)(F)F)cc(NS(=O)(=O)c2cc(Br)ccc2O)c1O` (mixture of isomers) [HCH-3, 3-((5-Bromo-2-hydroxyphenyl)sulfonamido)-2-hydroxy-N-(3-hydroxycyclobutyl)-5-(trifluoromethoxy)benzamide]: the pKi was 6.29.
As for `C[C@H](NC(=O)c1cc(OC(F)(F)F)cc(NS(=O)(=O)c2cc(Br)ccc2O)c1O)C(N)=O` (stereo in doubt) [HCH-48, N-(1-Amino-1-oxopropan-2-yl)-3-((5-bromo-2-hydroxyphenyl)sulfonamido)-2-hydroxy-5-(trifluoromethoxy)benzamide], the pKi is 6.60.
In the case of `O=C(O)c1cc(Cl)cc(NS(=O)(=O)c2cc(Br)ccc2O)c1O` [Example J1, 3-((5-Bromo-2-hydroxyphenyl)sulfonamido)-5-chloro-2-hydroxybenzoic acid] it was 7.05; in that of `COc1ccc(Br)cc1S(=O)(=O)Nc1cc(Cl)cc(C(=O)O)c1O` [Example J2, 3-((5-Bromo-2-methoxyphenyl)sulfonamido)-5-chloro-2-hydroxybenzoic acid], 6.74; in that of `O=C(O)c1cc(Cl)cc(NS(=O)(=O)c2cc(Br)cc(Cl)c2O)c1O` [Example J4, 3-((5-Bromo-3-chloro-2-hydroxyphenyl)sulfonamido)-5-chloro-2-hydroxybenzoic acid], 7.22.
Under `O=C(O)c1cc(Cl)cc(NS(=O)(=O)c2cc(Br)cc(F)c2O)c1O` [Example J5, 3-((5-Bromo-3-fluoro-2-hydroxyphenyl)sulfonamido)-5-chloro-2-hydroxybenzoic acid] stands 6.47; under `O=C(O)c1cc(Cl)cc(NS(=O)(=O)c2cc(Br)cc([N+](=O)[O-])c2O)c1O` [Example J6, 3-((5-Bromo-2-hydroxy-3-nitrophenyl)sulfonamido)-5-chloro-2-hydroxybenzoic acid], 6.96.
In the case of `COc1cc(Cl)c(Br)cc1S(=O)(=O)Nc1cc(Cl)cc(C(=O)O)c1O` [Example J7, 3-((5-Bromo-4-chloro-2-methoxyphenyl)sulfonamido)-5-chloro-2-hydroxybenzoic acid] it was 5.43; in that of `COc1cc(F)c(Br)cc1S(=O)(=O)Nc1cc(Cl)cc(C(=O)O)c1O` [Example J8, 3-((5-Bromo-4-fluoro-2-methoxyphenyl)sulfonamido)-5-chloro-2-hydroxybenzoic acid], 5.56.
Consider `O=C(O)c1cc(Cl)cc(NS(=O)(=O)c2cc(Br)c(F)cc2O)c1O` [Example J9, 3-((5-Bromo-4-fluoro-2-hydroxyphenyl)sulfonamido)-5-chloro-2-hydroxybenzoic acid], for which the pKi was 5.57.
On to `O=C(O)c1cc(Cl)cc(NS(=O)(=O)c2cc(Cl)c(F)cc2O)c1O` [Example J10, 5-Chloro-3-((5-chloro-4-fluoro-2-hydroxyphenyl)sulfonamido)-2-hydroxybenzoic acid], for which the pKi is 4.66.
`O=C(O)c1cc(Cl)cc(NS(=O)(=O)c2cc(Cl)c(Cl)cc2O)c1O` [Example J11, 5-Chloro-3-((4,5-dichloro-2-hydroxyphenyl)sulfonamido)-2-hydroxybenzoic acid]: the pKi is 5.60.
Under `CCc1cc(O)c(S(=O)(=O)Nc2cc(Cl)cc(C(=O)O)c2O)cc1Cl` [Example J12, 5-Chloro-3-((5-chloro-4-ethyl-2-hydroxyphenyl)sulfonamido)-2-hydroxybenzoic acid] stands 4.95; under `O=C(O)c1cc(Cl)cc(NS(=O)(=O)c2cc(Br)cc3cccnc23)c1O` [Example J13, 3-((6-Bromoquinoline)-8-sulfonamido)-5-chloro-2-hydroxybenzoic acid], 6.11.
In the case of `CNC(=O)c1cc(Cl)cc(NS(=O)(=O)c2cc(Br)ccc2O)c1O` [Example J14, 3-((5-Bromo-2-hydroxyphenyl)sulfonamido)-5-chloro-2-hydroxy-N-methylbenzamide] it was 6.43.
